Data as given in publication PMC5467912, “Asymmetric regulation of quorum-sensing receptors drives autoinducer-specific gene expression programs in Vibrio cholerae” (PLoS Genetics, 2017).
“And” between values parts separate entries of the source, which are not always exact repeats. Equal values may be shown once. Read-outs that look alike come from different tables or passages of the source.

What was measured:
[1] = test system: T1, CqsS D618N; experiment: CqsS D618N autophosphorylation in inverted membrane vesicles, 32P (Fig 7A); format: biochemical, Vibrio cholerae
T1 construct: made in house; host or cells: E. coli C43 (DE3), pET21b; used as inverted membrane vesicles

[2] = test system: T2, WT CqsS; format: biochemical; conditions: for % Total Phosphorylation: CqsS WT; for inhibition of WT CqsS autophosphorylation: saturating concentration (Fig 7B)
T2 construct: made in house; host or cells: E. coli C43 (DE3), pET21b; used as inverted membrane vesicles

[3] = test system: T2, WT CqsS; format: cell-based; conditions: Treatment 1uM
[4] = biological target: T3, CqsS (Vibrio cholerae serotype O1, UniProt Q9KM66); experiment: cell-based; conditions: for Light production: strain WN1102; for RLU: Strain WN1102; for EC50: light production, reporter strain WN1102, 4 h at 30 °C
T3 construct: endogenous in cells; host or cells: V. cholerae WN1102 (ΔcqsA ΔluxQ/pBB1), derived from C6706str2

[5] = test system: CqsS F162A; experiment: CqsS-dependent repression of qrr4-gfp, CqsS F162A (Fig 7C); format: cell-based, Vibrio cholerae; conditions: Treatment 1uM; CqsS mutant F162A
[6] = test system: CqsS C170Y; experiment: CqsS-dependent repression of qrr4-gfp, CqsS C170Y (Fig 7C); format: cell-based, Vibrio cholerae; conditions: Treatment 1uM; CqsS mutant C170Y
[7] = test system: CqsS F166L; experiment: CqsS-dependent repression of qrr4-gfp, CqsS F166L (Fig 7C); format: cell-based, Vibrio cholerae; conditions: Treatment 1uM; CqsS mutant F166L

SMILES: CCn1nnnc1NCc1ccc(N2CCCC2)cc1 [#1]
- % Total Phosphorylation ([1]; agonist 0.32 uM): 64.1931% and 55.8048% and 58.0668% and 77.924% and 56.4082%
- % Total Phosphorylation ([1]; agonist 10 uM): 1.9% and 2.181% and 3.3092% and 3.5805%
- % Total Phosphorylation ([2]; Agonist 0.1 uM): 100.558% and 115.09% and 103.96% and 101.973%
- % Total Phosphorylation ([2]; Agonist 0.5 uM): 68.5791% and 92.92% and 82.55% and 69.9852%
- % Total Phosphorylation ([2]; Agonist 1 uM): 45.0881% and 63.83% and 58.45% and 44.3406%
- % Total Phosphorylation ([2]; Agonist 2.5 uM): 26.3754% and 21.56% and 17.64% and 21.3677%
- % Total Phosphorylation ([2]; Agonist 5 uM): 11.5601% and 8.94% and 7.65% and 9.2554%
- % Total Phosphorylation ([2]; Agonist 10 uM): 6.306% and 5.77% and 3.8% and 4.014%
- % Total Phosphorylation ([2]; Agonist 20 uM): 3.59% and 2.41% and 2.332%
- % Total Phosphorylation ([2]; Agonist 30 uM): 2.867% and 2.2% and 1.97% and 1.073%
- % Total Phosphorylation ([2]; Agonist 100 uM): 1.456% and 1.61% and 2.02% and 0.9371%
- % Total Phosphorylation ([2]; Agonist 200 uM): 0.8391% and 0.1631%
- inhibition of WT CqsS autophosphorylation [2]: 99%
- Qrr4-GFP/OD600 [3]: 1321723 and 1319147 and 1356464
- Light production ([4]; Agonist 0.0119209 nM): 14433 RLU and 16087 RLU and 17053 RLU
- Light production ([4]; Agonist 0.0476837 nM): 23351 RLU and 21676 RLU and 24048 RLU
- Light production ([4]; Agonist 0.190735 nM): 38851 RLU and 41951 RLU and 36905 RLU
- Light production ([4]; Agonist 0.762939 nM): 87702 RLU and 80982 RLU and 79024 RLU
- Light production ([4]; Agonist 3.05176 nM): 716543 RLU and 579623 RLU and 556962 RLU
- Light production ([4]; Agonist 12.207 nM): 18832900 RLU and 18957270 RLU and 17907730 RLU
- Light production ([4]; Agonist 48.8281 nM): 80742000 RLU and 84094230 RLU and 86837650 RLU
- Light production ([4]; Agonist 195.312 nM): 115208300 RLU and 122904000 RLU and 129103600 RLU
- Light production ([4]; Agonist 781.25 nM): 116783100 RLU and 133656800 RLU and 131724500 RLU
- Light production ([4]; Agonist 3125 nM): 109482900 RLU and 129285000 RLU and 130316000 RLU
- Light production ([4]; Agonist 12500 nM): 93560740 RLU and 110559800 RLU and 116375500 RLU
- Light production ([4]; Agonist 50000 nM): 59185800 RLU and 66981220 RLU and 65547470 RLU
- fold more potent than CAI-1 ([4]; EC50 comparison): ~ 10 fold
- RLU ([4]; agonist 0.0119209 nM): 1.70E+04 RLU and 1.69E+04 RLU and 1.12E+04 RLU
- RLU ([4]; agonist 0.0476837 nM): 2.55E+04 RLU and 2.29E+04 RLU and 2.60E+04 RLU
- RLU ([4]; agonist 0.190735 nM): 4.47E+04 RLU and 4.12E+04 RLU and 4.19E+04 RLU
- RLU ([4]; agonist 0.762939 nM): 6.42E+04 RLU and 6.05E+04 RLU and 7.48E+04 RLU
- RLU ([4]; agonist 3.05176 nM): 2.06E+05 RLU and 2.32E+05 RLU and 3.12E+05 RLU
- RLU ([4]; agonist 12.207 nM): 1.01E+07 RLU and 9.84E+06 RLU and 1.23E+07 RLU
- RLU ([4]; agonist 48.8281 nM): 9.23E+07 RLU and 8.51E+07 RLU and 1.09E+08 RLU
- RLU ([4]; agonist 195.312 nM): 1.65E+08 RLU and 1.58E+08 RLU and 1.92E+08 RLU
- RLU ([4]; agonist 781.25 nM): 1.94E+08 RLU and 2.03E+08 RLU and 2.28E+08 RLU
- RLU ([4]; agonist 3125 nM): 2.05E+08 RLU and 2.11E+08 RLU and 2.23E+08 RLU
- RLU ([4]; agonist 12500 nM): 1.88E+08 RLU and 1.94E+08 RLU and 1.93E+08 RLU
- RLU ([4]; agonist 50000 nM): 1.33E+08 RLU and 1.29E+08 RLU
- EC50 [4]: 4 nM
- Qrr4-GFP/OD600 [5]: 15523160 and 14988240 and 15125460
- Qrr4-GFP/OD600 [6]: 18211780 and 19558860 and 23085030
- Qrr4-GFP/OD600 [7]: 1372627 and 1402431 and 1341231

SMILES: O=C(Cc1ccc(-c2ccccc2)cc1)NC1CCCC1 [#10]
- % Total Phosphorylation ([1]; agonist 0.32 uM): 78.2169% and 129.787% and 72.1832% and 83.4166% and 68.7823%
- % Total Phosphorylation ([1]; agonist 0.64 uM): 67.6455% and 78.826% and 54.4942% and 82.803% and 54.4178% and 76.2235%
- % Total Phosphorylation ([1]; agonist 5.12 uM): 12.1256% and 15.8552% and 14.0183% and 14.8493% and 9.564% and 18.5457%
- % Total Phosphorylation ([1]; agonist 6.4 uM): 8.254% and 10.2835% and 8.308% and 5.772% and 5.105% and 9.008%
- % Total Phosphorylation ([1]; agonist 8 uM): 7.787% and 6.051% and 9.483% and 6.182% and 5.718% and 6.335%
- % Total Phosphorylation ([2]; Agonist 0.1 uM): 86.7558%
- % Total Phosphorylation ([2]; Agonist 0.5 uM): 84.62% and 81.5912%
- % Total Phosphorylation ([2]; Agonist 1 uM): 70.72%
- % Total Phosphorylation ([2]; Agonist 5 uM): 11.17% and 6.892%
- % Total Phosphorylation ([2]; Agonist 10 uM): 7.64% and 4.71%
- % Total Phosphorylation ([2]; Agonist 20 uM): 4.64% and 6.727%
- % Total Phosphorylation ([2]; Agonist 30 uM): 7.41% and 4.674%
- % Total Phosphorylation ([2]; Agonist 100 uM): 7.94% and 6.455%
- % Total Phosphorylation ([2]; Agonist 200 uM): 9.2% and 11.8727%
- inhibition of WT CqsS autophosphorylation [2]: 90%
- Qrr4-GFP/OD600 [3]: 1697194 and 1657949 and 1642162
- Light production ([4]; Agonist 0.0119209 nM): 9369.4 RLU and 6986.9 RLU and 10942 RLU
- Light production ([4]; Agonist 0.0476837 nM): 9423.1 RLU and 8000 RLU and 9340.1 RLU
- Light production ([4]; Agonist 0.190735 nM): 12692 RLU and 13456 RLU and 11192 RLU
- Light production ([4]; Agonist 0.762939 nM): 11313 RLU and 14104 RLU and 15238 RLU
- Light production ([4]; Agonist 3.05176 nM): 22600 RLU and 24142 RLU and 30238 RLU
- Light production ([4]; Agonist 12.207 nM): 47534 RLU and 48144 RLU and 43294 RLU
- Light production ([4]; Agonist 48.8281 nM): 434632 RLU and 280649 RLU and 290930 RLU
- Light production ([4]; Agonist 195.312 nM): 18756970 RLU and 17581320 RLU and 17098310 RLU
- Light production ([4]; Agonist 781.25 nM): 54801790 RLU and 56977330 RLU and 58542960 RLU
- Light production ([4]; Agonist 3125 nM): 59104040 RLU and 65075830 RLU and 69081300 RLU
- Light production ([4]; Agonist 12500 nM): 60176380 RLU and 64830980 RLU and 65866960 RLU
- Light production ([4]; Agonist 50000 nM): 60204070 RLU and 58034020 RLU and 58318400 RLU
- EC50 [4]: 62 nM
- Qrr4-GFP/OD600 [5]: 18605320 and 18513840 and 18292630
- Qrr4-GFP/OD600 [6]: 18211540 and 17807950 and 19517480
- Qrr4-GFP/OD600 [7]: 1551288 and 1596042 and 1572105
